Reference: ChEMBL document CHEMBL6109121, “Discovery of Novel Sulfonylurea NLRP3 Inflammasome Inhibitor for the Treatment of Multiple Inflammatory Diseases” (J Med Chem, 2025)
Calls of active or inactive are those of the source. The calls are words filed in the database; no cut-off is given here.

Legend:
Mus musculus [1] = assay: Antidiabetic activity in HFD-fed STZ-induced diabetic kidney disease male C57BL/6J mouse model assessed as improvement of glucose tolerance at 20 mg/kg fed with high fat diet for 4 weeks followed by STZ administration for 5 days further administered with compound via gavage for 6 weeks and measured after 120 mins of glucose administration by OGTT; type: functional, organism-based; conditions: time 60600.0 min
[2] = Tmax in male ICR (CD-1) mouse at 20 mg/kg, po by LC-MS/MS analysis; type: ADME, organism-based; conditions: in vivo
Mus musculus [3] = assay: Anti-colitis activity in DSS-induced acute ulcerative colitis male C57BL/6J mouse model assessed as reduction in histologic severity score at 0.2 to 5 mg/kg, po preadministered with DSS for 7 days followed by 3 days of drinking water and measured after 10 days of compound administration; type: functional, organism-based; conditions: dose 0.2-5 mg/kg, time 10.0 day
[4] = Half-life in male ICR (CD-1) mouse at 20 mg/kg, po by LC-MS/MS analysis; type: ADME, organism-based; conditions: in vivo
BMDM [5] = assay: Inhibition of NLRP3 inflammasome activation at initiation phase in LPS/ATP-stimulated male C57BL/6J mouse BMDM cells assessed as inhibition of TNF-alpha secretion […] for 4 hrs followed by compound administration for 30 mins and measured after 1 hrs of ATP addition by ELISA; type: cell-based; conditions: time 1.5 hrs
[6] = AUClast in male ICR (CD-1) mouse at 5 mg/kg, iv by LC-MS/MS analysis; type: ADME, organism-based; conditions: in vivo
[7] = Drug uptake in heart of male C57BL/6J mouse at 20 mg/kg, po administered as single dose and measured after 8 hrs by LC-MS/MS analysis; type: ADME, organism-based; conditions: in vivo
Mus musculus [8] = assay: Antidiabetic activity in HFD-fed STZ-induced diabetic kidney disease male C57BL/6J mouse model assessed as reduction in tubular basement membrane thickening in kidney at 20 mg/kg fed with high fat diet for 4 weeks followed by STZ administration for 5 days and measured 6 weeks post compound administration via gavage by histological analysis; type: functional, organism-based
BMDM [9] = assay: Inhibition of NLRP3 inflammasome activation at initiation phase in LPS/ATP-stimulated male C57BL/6J mouse BMDM cells assessed as inhibition of IL6 secretion […] for 4 hrs followed by compound administration for 30 mins and measured after 1 hrs of ATP addition by ELISA; type: cell-based; conditions: time 1.5 hrs
Mus musculus [10] = assay: Effect on TNF-alpha level in serum of DSS-induced acute ulcerative colitis male C57BL/6J mouse model at 0.2 to 5 mg/kg, po preadministered with DSS for 7 days followed by 3 days of drinking water and measured after 10 days of compound administration by ELISA; type: functional, organism-based; conditions: dose 0.2-5 mg/kg, time 10.0 day
[11] = Half-life in male ICR (CD-1) mouse at 5 mg/kg, iv by LC-MS/MS analysis; type: ADME, organism-based; conditions: in vivo
[12] = Oral bioavailability in male ICR (CD-1) mouse at 20 mg/kg by LC-MS/MS analysis; type: ADME, organism-based; conditions: in vivo
Mus musculus [13] = assay: Anti-colitis activity in DSS-induced acute ulcerative colitis male C57BL/6J mouse model assessed as reduction in depletion of goblet cells in colon at 0.2 to 5 mg/kg, po preadministered with DSS for 7 days followed by 3 days of drinking water and measured after 10 days of compound administration by H and E staining based analysis; type: functional, organism-based; conditions: dose 0.2-5 mg/kg, time 10.0 day
[14] = Cmax in male ICR (CD-1) mouse at 20 mg/kg, po by LC-MS/MS analysis; type: ADME, organism-based; conditions: in vivo
[15] = AUClast in male ICR (CD-1) mouse at 20 mg/kg, po by LC-MS/MS analysis; type: ADME, organism-based; conditions: in vivo
Mus musculus [16] = assay: Anti-inflammatory activity in LPS/ATP-induced acute peritonitis male C57BL/6J mouse model assessed as survival rate at 20 mg/kg, po preadministered with compound for 1 hrs followed by LPS addition for 2 hrs and further administered with ATP and measured 21 hrs post LPS administration relative to control; type: functional; conditions: time 22 hrs
[17] = Drug uptake in lung of male C57BL/6J mouse at 20 mg/kg, po administered as single dose and measured after 8 hrs by LC-MS/MS analysis; type: ADME, organism-based; conditions: in vivo
Mus musculus [18] = assay: Anti-inflammatory activity in LPS/ATP-induced acute peritonitis male C57BL/6J mouse model assessed as survival rate at 1 mg/kg, po preadministered with compound for 1 hrs followed by LPS addition for 2 hrs and further administered with ATP and measured 21 hrs post LPS administration relative to control; type: functional; conditions: time 22 hrs
Mus musculus [19] = assay: Effect on HDL-C level in serum of HFD-fed STZ-induced diabetic kidney disease male C57BL/6J mouse model at 20 mg/kg fed with high fat diet for 4 weeks followed by STZ administration for 5 days and measured 6 weeks post compound administration via gavage; type: functional, organism-based
Mus musculus [20] = assay: Anti-colitis activity in DSS-induced acute ulcerative colitis male C57BL/6J mouse model assessed as reduction in disruption of mucosal barrier in colon at 0.2 to 5 mg/kg, po preadministered with DSS for 7 days followed by 3 days of drinking water and measured after 10 days of compound administration by H and E staining based analysis; type: functional, organism-based; conditions: dose 0.2-5 mg/kg, time 10.0 day
[21] = Drug uptake in brain of male C57BL/6J mouse at 20 mg/kg, po administered as single dose and measured after 8 hrs by LC-MS/MS analysis; type: ADME, organism-based; conditions: in vivo
[22] = Inhibition of NLRP3 inflammasome activation in human THP-1 cells assessed as inhibition of IL-1beta release; type: cell-based
Mus musculus [23] = assay: Antidiabetic activity in HFD-fed STZ-induced diabetic kidney disease male C57BL/6J mouse model assessed as decrease in IL-1beta level in serum at 20 mg/kg fed with high fat diet for 4 weeks followed by STZ administration for 5 days and measured 6 weeks post compound administration via gavage by ELISA; type: functional, organism-based
[24] = Drug uptake in gastrointestinal tract of male C57BL/6J mouse at 20 mg/kg, po administered as single dose and measured after 8 hrs by LC-MS/MS analysis; type: ADME, organism-based; conditions: in vivo
Mus musculus [25] = assay: Antidiabetic activity in HFD-fed STZ-induced diabetic kidney disease male C57BL/6J mouse model assessed as reduction in urine albumin-to-creatinine ratio at 20 mg/kg fed with high fat diet for 4 weeks followed by STZ administration for 5 days and measured 6 weeks post compound administration via gavage; type: functional, organism-based
Mus musculus [26] = assay: Anti-colitis activity in DSS-induced acute ulcerative colitis male C57BL/6J mouse model assessed as improvement in stool consistency at 0.2 to 5 mg/kg, po preadministered with DSS for 7 days followed by 3 days of drinking water and measured after 10 days of compound administration; type: functional, organism-based; conditions: dose 0.2-5 mg/kg, time 10.0 day
Mus musculus [27] = assay: Anti-colitis activity in DSS-induced acute ulcerative colitis male C57BL/6J mouse model assessed as reduction in infiltration of inflammatory cells in colon at 0.2 to 5 mg/kg, po preadministered with DSS for 7 days followed by 3 days of drinking water and measured after 10 days of compound administration by H and E staining based analysis; type: functional, organism-based; conditions: dose 0.2-5 mg/kg, time 10.0 day
BMDM [28] = assay: Inhibition of AIM2 inflammasome activation in LPS/Poly dA:dT-stimulated male C57BL/6J mouse BMDM cells assessed as inhibition of IL-1beta secretion pretreated with LPS followed by compound addition for 4 hrs and measured after 4 hrs of Poly dA:dT addition by ELISA; type: cell-based; conditions: time 8.0 hrs
Mus musculus [29] = assay: Effect on TNF-alpha level in serum of HFD-fed STZ-induced diabetic kidney disease male C57BL/6J mouse model at 20 mg/kg fed with high fat diet for 4 weeks followed by STZ administration for 5 days and measured 6 weeks post compound administration via gavage by ELISA; type: functional, organism-based

With `CN1CCC(N(C)S(=O)(=O)NC(=O)Nc2c3c(cc4c2CCC4)CCC3)CC1` the Activity (Mus musculus [1]) was “inactive”, the Tmax [2] was 0.33 h and the Activity (Mus musculus [3]) was “Active”. The half-life [4] was 2.7 h, the inhibition (BMDM [5]) was “inactive” and the AUC(0-t) [6] was 14500 ng·h/mL. The Drug uptake [7] was “Active”, the Activity (Mus musculus [8]) was “Active” and the inhibition (BMDM [9]) was “inactive”. The Activity (Mus musculus [10]) was “inactive”, the half-life [11] was 3.63 h and the bioavailability [12] was 99.6%. For the same compound, the Activity (Mus musculus [13]) was “Active”, the Cmax [14] was 35500 ng/mL and the AUC(0-t) [15] was 57900 ng·h/mL. The survival at 20 mg/kg (Mus musculus [16]) was 100%, the Drug uptake [17] was “Active” and the survival at 1 mg/kg (Mus musculus [18]) was 75%. For the same compound, the Activity (Mus musculus [19]) was “inactive”, the Activity (Mus musculus [20]) was “Active” and the Drug uptake [21] was “Not_active”. For the same compound, the IC50 [22] was 23 nM, the Activity (Mus musculus [23]) was “Active” and the Drug uptake [24] was “Active”. The Activity (Mus musculus [25]) was “Active”, the Activity (Mus musculus [26]) was “Active” and the Activity (Mus musculus [27]) was “Active”. For the same compound, the inhibition (BMDM [28]) was “inactive” and the Activity (Mus musculus [29]) was “inactive”.
